Measurements: article PMC8250858, “A Systematic Study of the Stability, Safety, and Efficacy of the de novo Designed Antimicrobial Peptide PepD2 and Its Modified Derivatives Against Acinetobacter baumannii” (Frontiers in Microbiology, 2021)
Read-outs that look alike come from different tables or passages of the source.

How the values were obtained:
in vitro = in vitro ADME, rat; details: rat, plasma, rat plasma, room temperature
Method: EDTA-treated rat whole blood was centrifuged at 4°C and 840 × g for 5 min, and then the blood cells were removed ([[…] et al., 2019]). The supernatant was placed in an Eppendorf tube and centrifuged at 4°C and 13,000 rpm for 10 min to remove lipids (white precipitate). The supernatant was filtered through a 0.2-μm filter. The peptide was dissolved in water and filtered through a 0.2-μm filter. The peptide concentration was quantified by the UV280 to make a 1 mg/mL stock solution. […] At the indicated time, the peptide was analyzed by HPLC with a C18 column using a linear gradient of 20-65% B over 15 min. Solution A: 5% acetonitrile plus 0.1% trifluoroacetic acid in water; solution B: 0.1% trifluoroacetic acid in acetonitrile.

A. baumannii 17978 = test: Time-kill kinetics assay in MHB; format: cell-based, Acinetobacter baumannii; details: 37°C with shaking, 4 μg/mL for both peptides
Method: FIGURE 4 Time-kill kinetics assay. […] This experiment was performed in ex vivo whole rat blood at room temperature without shaking. A. baumannii (final concentration of 10^7 CFU/mL) was incubated with or without peptide (4 μg/mL) for 60 min. At the indicated time points, an aliquot of the sample was removed and diluted, and the remaining cell number was counted by plating on MHA plates. The data are expressed as the mean ± SD. […] A. baumannii (final concentration of 10^7 CFU/mL) was incubated with or without peptide at 37°C with shaking. The peptide concentration was 4 μg/mL for both peptides.

HEK293 cells = format: cell-based, human
Method: Cell viability assays were performed by using the CellTiter 96® AQueous Non-Radioactive Cell Proliferation Assay (Promega, United States), in which 3-(4,5-dimethylthiazol-2-yl)-5-(3-carboxymethoxyphenyl)-2-(4-sulfophenyl)-2H-tetrazolium salt (MTS) can be reduced to purple-colored formazan by intact cells. […] The test peptide was dissolved in water and filtered through a 0.2-μm filter. The peptide concentration was quantitated by the UV280 to make a 5,120 μg/mL stock solution and then serially diluted in serum-free DMEM. On the second day, the medium was replaced with 100 μL of serum-free DMEM containing different peptide concentrations and incubated for 1 or 24 h. Serum-free DMEM without peptide was used as a negative control and medium containing 1% Triton X-100 was used as a positive control. One milligram of MTS powder was dissolved in 0.5 mL of Dulbecco’s phosphate-buffered saline (DPBS). The MTS solution was mixed with one-twentieth of a phenazine methosulfate (PMS) solution ([…]). To each well, 20 μL of the MTS/PMS solution was added. After 3 h, the absorbance was measured with an Infinite M1000 pro (Tecan Austria GmbH, Austria) at a wavelength of 490 nm. Cell viability was calculated using the following equation. Cellviability=[(A-Ap)/(An-Ap)]×100% A is the UV490 of the peptide-treated sample An is the UV490 of the sample without peptide (negative control) Ap is the UV490 of the Triton-treated sample (positive control)

Ac-WKKIKKIIKKIKKI-NH2 [pepI2]
half-life at 0.6 mg/mL (in vitro): 11.2 h
Killing rate compared (A. baumannii 17978): killed A. baumannii faster than colistin sulfate
HEK293 IC50 (HEK293 cells; 1 h): 68.5 µg/mL
HEK293 IC50 (HEK293 cells; 24 h): 66.8 µg/mL
